Measurements reported in ChEMBL document CHEMBL4118122, “Identification and biological evaluation of thiazole-based inverse agonists of RORγt” (Bioorg Med Chem Lett, 2018).

Legend:
[1] = target: Serine/threonine-protein kinase Chk2 (Homo sapiens) (UniProt O96017); experiment: Inhibition of recombinant full length His-tagged human CHK2 expressed in baculovirus expression system at 10 uM in presence of ATP relative to control
Histamine H2 receptor = Histamine H2 receptor (Homo sapiens, UniProt P25021); experiment: Displacement of [125I]APT from human recombinant histamine H2 receptor at 10 uM after 120 mins by scintillation counting analysis relative to control
Rattus norvegicus = species: Rattus norvegicus; experiment: Displacement of [3H]D 888 from rat brain L-type calcium channel verapamil binding site at 1 uM after 120 mins by scintillation counting analysis relative to control
[2] = target: G protein-coupled receptor kinase 4 (Homo sapiens) (UniProt P32298); experiment: Inhibition of recombinant human full length GST-tagged GRK4 expressed in baculovirus expression system at 10 uM in presence of ATP relative to control
Mu-type opioid receptor = Mu-type opioid receptor (Homo sapiens, UniProt P35372); experiment: Displacement of [3H]DAMGO from human recombinant mu receptor at 10 uM after 120 mins by scintillation counting analysis relative to control
[3] = Binding affinity to GABA-gated chloride channel (unknown origin) by antagonist radioligand binding assay; set-up: species or system Homo sapiens
[4] = target: C-C chemokine receptor type 1 (Homo sapiens) (UniProt P32246); experiment: Displacement of [125I]MIP-1alpha from human recombinant CCR1 receptor at 1 uM after 120 mins by scintillation counting analysis relative to control
[5] = target: T1, Nuclear receptor ROR-gamma (Homo sapiens, UniProt P51449); experiment: Inverse agonist activity at RORgammat in human CD4 positive T cells assessed as inhibition of IL17A production in human Th17 cells after 1 hr; format: cell-based
T1 sequence (P51449 whole entry): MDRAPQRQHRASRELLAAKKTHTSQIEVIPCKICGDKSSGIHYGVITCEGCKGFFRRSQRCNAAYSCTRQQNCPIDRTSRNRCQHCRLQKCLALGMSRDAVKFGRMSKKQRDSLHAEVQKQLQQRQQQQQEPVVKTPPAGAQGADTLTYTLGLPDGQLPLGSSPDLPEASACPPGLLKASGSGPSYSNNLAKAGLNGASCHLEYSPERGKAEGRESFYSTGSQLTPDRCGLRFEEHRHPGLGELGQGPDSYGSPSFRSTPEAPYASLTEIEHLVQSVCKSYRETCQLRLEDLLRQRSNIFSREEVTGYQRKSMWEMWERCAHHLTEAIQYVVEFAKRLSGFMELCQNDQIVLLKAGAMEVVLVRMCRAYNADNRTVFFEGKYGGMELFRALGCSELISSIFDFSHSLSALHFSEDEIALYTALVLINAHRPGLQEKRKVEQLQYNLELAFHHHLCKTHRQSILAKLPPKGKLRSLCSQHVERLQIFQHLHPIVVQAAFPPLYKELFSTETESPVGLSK

D(2) dopamine receptor = D(2) dopamine receptor (Homo sapiens, UniProt P14416); experiment: Displacement of [3H]7-OH-DPAT from human recombinant dopamine D2S receptor at 1 uM after 60 mins by scintillation counting analysis relative to control
[6] = target: Small conductance calcium-activated potassium channel (Rattus norvegicus) (UniProt P70604+P70606+P70605); experiment: Displacement of [125I]apamin from rat brain SkCa channel at 1 uM after 60 mins by scintillation counting analysis relative to control
[7] = target: Neuropeptide Y receptor type 1 (Homo sapiens, UniProt P25929); experiment: Displacement of [125I]peptide YY from human Y1 receptor after 120 mins by scintillation counting analysis
[8] = target: Protein kinase C beta type (Homo sapiens) (UniProt P05771); experiment: Inhibition of PKCbeta1 (unknown origin) at 10 uM in presence of ATP relative to control
[9] = target: Sodium-dependent serotonin transporter (Homo sapiens, UniProt P31645); experiment: Displacement of [3H]-imipramine from recombinant human 5-HT transporter after 60 mins by scintillation counting relative to control
[10] = target: Fibroblast growth factor receptor 1 (Homo sapiens) (UniProt P11362); experiment: Inhibition of recombinant His-tagged human FGFR1 cytoplasmic domain expressed in baculovirus expression system at 10 uM in presence of ATP relative to control
[11] = target: T2, Beta-1 adrenergic receptor (Homo sapiens, UniProt P08588); experiment: Displacement of [3H](-)CGP 12177 from human beta1 adrenoceptor at 1 uM after 60 mins by scintillation counting analysis relative to control
Target sequence in this assay (P08588 whole entry, looked up, canonical isoform): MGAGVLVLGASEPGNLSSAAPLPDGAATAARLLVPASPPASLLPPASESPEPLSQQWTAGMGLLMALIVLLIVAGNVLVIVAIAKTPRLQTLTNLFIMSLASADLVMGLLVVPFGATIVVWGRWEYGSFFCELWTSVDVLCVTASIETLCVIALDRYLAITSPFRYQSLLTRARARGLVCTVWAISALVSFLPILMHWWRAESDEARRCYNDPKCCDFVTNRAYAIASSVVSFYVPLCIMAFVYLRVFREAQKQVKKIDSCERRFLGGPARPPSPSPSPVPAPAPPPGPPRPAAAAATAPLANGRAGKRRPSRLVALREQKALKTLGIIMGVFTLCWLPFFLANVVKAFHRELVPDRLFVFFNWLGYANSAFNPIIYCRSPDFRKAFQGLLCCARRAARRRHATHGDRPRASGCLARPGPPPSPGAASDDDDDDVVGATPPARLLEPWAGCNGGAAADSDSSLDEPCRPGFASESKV

[12] = target: Casein kinase I isoform epsilon (Homo sapiens) (UniProt P49674); experiment: Inhibition of CK1epsilon (unknown origin) at 10 uM in presence of ATP relative to control
[13] = target: NT-3 growth factor receptor (Homo sapiens) (UniProt Q16288); experiment: Inhibition of recombinant full length His-tagged human NTRK3 (510 to 825 residues) cytoplasmic domain expressed in baculovirus expression system at 10 uM in presence of ATP relative to control
[14] = target: Galanin receptor type 2 (Homo sapiens) (UniProt O43603); experiment: Displacement of [125I]-endothelin-1 from human recombinant GAL2 receptor at 10 uM after 120 mins by scintillation counting analysis relative to control
[15] = target: 5-hydroxytryptamine receptor 1B (Rattus norvegicus) (UniProt P28564); experiment: Displacement of [125I]-CYP from rat brain 5-HT1B receptor at 10 uM after 120 mins by scintillation counting analysis relative to control
Cytochrome P450 1A2 = target: T3, Cytochrome P450 1A2 (Homo sapiens, UniProt P05177); experiment: Inhibition of CYP1A2 (unknown origin); format: ADME
T3 sequence (P05177 whole entry): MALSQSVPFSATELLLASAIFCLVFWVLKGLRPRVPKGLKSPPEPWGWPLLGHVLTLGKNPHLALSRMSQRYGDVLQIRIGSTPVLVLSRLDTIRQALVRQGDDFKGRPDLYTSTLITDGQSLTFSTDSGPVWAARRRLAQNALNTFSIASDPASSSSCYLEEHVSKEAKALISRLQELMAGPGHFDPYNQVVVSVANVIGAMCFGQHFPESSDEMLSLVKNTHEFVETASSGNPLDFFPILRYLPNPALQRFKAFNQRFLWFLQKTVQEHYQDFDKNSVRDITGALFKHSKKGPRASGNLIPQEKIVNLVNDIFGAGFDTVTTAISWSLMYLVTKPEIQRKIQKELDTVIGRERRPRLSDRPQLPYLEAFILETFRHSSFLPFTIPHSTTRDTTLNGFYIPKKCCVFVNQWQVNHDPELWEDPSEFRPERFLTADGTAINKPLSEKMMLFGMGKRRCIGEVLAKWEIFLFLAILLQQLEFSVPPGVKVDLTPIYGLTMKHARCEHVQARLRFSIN

[16] = target: T2, Beta-1 adrenergic receptor; experiment: Displacement of [3H](-)CGP 12177 from human beta1 adrenoceptor after 60 mins by scintillation counting analysis
Target sequence in this assay (P08588 whole entry, canonical isoform): as the sequence (P08588 whole entry, looked up, canonical isoform) above

[17] = target: Muscarinic acetylcholine receptor M2 (Homo sapiens) (UniProt P08172); experiment: Displacement of [3H]AF-DX 384 from human recombinant M2 receptor at 1 uM after 60 mins by scintillation counting analysis relative to control

Sequence of D(2) dopamine receptor (P14416 whole entry): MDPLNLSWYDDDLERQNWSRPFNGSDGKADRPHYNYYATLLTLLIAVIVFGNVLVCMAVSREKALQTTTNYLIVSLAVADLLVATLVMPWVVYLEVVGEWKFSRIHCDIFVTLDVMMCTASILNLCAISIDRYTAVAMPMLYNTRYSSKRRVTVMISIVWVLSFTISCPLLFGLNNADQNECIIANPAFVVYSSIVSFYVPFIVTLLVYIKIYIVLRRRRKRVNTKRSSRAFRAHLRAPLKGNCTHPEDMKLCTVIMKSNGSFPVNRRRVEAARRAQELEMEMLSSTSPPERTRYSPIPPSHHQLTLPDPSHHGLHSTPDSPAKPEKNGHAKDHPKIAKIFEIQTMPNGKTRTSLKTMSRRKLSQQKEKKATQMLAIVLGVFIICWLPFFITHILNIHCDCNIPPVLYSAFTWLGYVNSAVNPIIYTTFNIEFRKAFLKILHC
Sequence of G protein-coupled receptor kinase 4 (Homo sapiens) (P32298 whole entry, looked up): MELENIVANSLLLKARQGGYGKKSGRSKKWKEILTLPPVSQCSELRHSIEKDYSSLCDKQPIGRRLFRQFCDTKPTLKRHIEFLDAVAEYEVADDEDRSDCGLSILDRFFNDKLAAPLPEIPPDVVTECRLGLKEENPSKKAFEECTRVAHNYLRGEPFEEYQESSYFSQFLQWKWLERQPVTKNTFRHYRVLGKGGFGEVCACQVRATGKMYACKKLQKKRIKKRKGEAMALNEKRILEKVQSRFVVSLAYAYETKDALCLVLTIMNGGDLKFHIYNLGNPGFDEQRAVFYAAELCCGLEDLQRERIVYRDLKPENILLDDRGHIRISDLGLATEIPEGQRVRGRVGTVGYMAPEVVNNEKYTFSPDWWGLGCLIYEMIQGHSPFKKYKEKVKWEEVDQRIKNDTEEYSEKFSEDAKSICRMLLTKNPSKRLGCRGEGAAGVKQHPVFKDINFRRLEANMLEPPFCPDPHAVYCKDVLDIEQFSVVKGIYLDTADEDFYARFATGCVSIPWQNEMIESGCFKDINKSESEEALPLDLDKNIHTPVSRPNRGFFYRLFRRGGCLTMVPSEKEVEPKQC
Sequence of NT-3 growth factor receptor (Homo sapiens) (Q16288 32-839 limits assumed): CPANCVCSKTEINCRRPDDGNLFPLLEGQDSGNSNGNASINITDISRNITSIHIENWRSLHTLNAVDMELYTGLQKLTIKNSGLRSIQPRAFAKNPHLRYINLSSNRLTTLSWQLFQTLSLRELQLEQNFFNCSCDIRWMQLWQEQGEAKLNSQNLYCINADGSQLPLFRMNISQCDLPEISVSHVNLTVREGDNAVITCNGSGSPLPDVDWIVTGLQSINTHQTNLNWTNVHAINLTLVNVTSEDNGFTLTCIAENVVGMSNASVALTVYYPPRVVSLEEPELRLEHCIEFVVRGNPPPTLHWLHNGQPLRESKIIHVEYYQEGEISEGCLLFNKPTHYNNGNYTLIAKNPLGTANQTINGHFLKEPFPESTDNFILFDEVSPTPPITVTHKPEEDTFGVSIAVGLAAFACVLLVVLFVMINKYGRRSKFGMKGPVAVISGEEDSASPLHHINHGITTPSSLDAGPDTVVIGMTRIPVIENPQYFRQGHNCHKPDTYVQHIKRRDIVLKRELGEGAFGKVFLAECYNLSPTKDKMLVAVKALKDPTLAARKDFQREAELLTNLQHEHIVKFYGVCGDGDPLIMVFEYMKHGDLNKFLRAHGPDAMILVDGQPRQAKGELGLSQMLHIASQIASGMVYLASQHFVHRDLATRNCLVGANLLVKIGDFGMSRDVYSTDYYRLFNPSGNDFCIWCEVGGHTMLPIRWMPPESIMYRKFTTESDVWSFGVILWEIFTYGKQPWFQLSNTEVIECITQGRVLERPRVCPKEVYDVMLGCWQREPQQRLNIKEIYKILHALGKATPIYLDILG
Sequence of Fibroblast growth factor receptor 1 (Homo sapiens) (P11362 22-822 limits assumed): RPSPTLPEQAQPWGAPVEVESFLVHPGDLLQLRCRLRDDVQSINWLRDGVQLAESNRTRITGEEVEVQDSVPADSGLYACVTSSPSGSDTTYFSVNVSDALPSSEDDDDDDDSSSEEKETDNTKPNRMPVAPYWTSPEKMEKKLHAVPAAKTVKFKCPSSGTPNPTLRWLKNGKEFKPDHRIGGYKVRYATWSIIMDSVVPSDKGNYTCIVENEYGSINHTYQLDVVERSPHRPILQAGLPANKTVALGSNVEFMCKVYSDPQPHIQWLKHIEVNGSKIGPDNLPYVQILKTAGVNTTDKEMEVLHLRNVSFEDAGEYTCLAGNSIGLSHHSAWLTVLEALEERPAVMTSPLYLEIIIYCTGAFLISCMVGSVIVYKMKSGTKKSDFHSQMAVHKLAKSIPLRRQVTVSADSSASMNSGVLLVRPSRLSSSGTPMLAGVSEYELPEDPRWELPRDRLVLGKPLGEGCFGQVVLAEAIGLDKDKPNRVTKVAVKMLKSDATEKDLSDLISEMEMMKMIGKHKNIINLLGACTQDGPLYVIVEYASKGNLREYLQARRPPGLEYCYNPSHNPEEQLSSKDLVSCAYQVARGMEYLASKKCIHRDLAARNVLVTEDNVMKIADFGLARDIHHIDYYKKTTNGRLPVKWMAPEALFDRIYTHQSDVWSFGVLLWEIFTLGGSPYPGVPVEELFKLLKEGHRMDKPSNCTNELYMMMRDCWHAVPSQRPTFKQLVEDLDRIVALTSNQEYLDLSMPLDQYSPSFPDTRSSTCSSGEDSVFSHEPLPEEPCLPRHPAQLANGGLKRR
Sequence of 5-hydroxytryptamine receptor 1B (Rattus norvegicus) (P28564 whole entry): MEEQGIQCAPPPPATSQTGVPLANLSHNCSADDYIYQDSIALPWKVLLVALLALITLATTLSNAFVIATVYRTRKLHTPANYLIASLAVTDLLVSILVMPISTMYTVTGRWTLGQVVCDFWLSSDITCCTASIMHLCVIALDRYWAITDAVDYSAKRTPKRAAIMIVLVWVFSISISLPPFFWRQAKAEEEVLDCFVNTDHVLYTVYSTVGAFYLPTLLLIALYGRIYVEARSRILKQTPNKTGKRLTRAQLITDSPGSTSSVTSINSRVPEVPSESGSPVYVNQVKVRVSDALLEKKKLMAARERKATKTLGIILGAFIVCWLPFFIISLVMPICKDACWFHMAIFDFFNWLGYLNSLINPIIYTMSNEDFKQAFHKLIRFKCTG
Sequence of Galanin receptor type 2 (Homo sapiens) (O43603 whole entry): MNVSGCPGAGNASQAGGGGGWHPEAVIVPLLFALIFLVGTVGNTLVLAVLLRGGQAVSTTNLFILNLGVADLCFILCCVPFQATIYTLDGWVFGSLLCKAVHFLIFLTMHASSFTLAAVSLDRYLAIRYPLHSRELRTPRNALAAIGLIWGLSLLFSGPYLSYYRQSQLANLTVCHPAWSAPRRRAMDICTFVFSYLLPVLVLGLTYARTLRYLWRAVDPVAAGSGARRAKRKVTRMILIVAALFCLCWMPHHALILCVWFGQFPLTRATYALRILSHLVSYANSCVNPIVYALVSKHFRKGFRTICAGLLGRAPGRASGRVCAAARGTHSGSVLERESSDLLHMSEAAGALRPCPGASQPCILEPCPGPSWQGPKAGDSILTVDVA
Sequence of Casein kinase I isoform epsilon (Homo sapiens) (P49674 whole entry, looked up, the tested form may be a part, canonical isoform): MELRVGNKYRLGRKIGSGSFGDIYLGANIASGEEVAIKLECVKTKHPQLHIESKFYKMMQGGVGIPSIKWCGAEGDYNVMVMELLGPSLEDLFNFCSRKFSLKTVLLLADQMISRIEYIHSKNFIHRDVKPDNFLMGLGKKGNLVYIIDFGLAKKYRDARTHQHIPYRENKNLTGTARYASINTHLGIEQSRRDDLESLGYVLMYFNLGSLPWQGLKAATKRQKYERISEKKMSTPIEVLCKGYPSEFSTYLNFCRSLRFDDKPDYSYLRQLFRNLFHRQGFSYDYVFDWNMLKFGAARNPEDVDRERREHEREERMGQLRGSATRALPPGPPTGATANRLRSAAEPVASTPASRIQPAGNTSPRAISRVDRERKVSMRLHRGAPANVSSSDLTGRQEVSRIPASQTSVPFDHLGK

Question: With `CC(C)(C)NS(=O)(=O)c1ccc(-c2sc(C(=O)N[C@H]3C[C@H](C(=O)O)C3)nc2CC2CCCCC2)c2ccccc12` as the molecule, how does the inhibition [1] read?
Answer: -1%

Question: What about the inhibition (Histamine H2 receptor) of the same molecule?
Answer: < 10%

Question: What about the inhibition (Rattus norvegicus) of the same molecule?
Answer: < 10%

Question: What about the inhibition [2] of the same molecule?
Answer: -3%

Question: What about the inhibition (Mu-type opioid receptor) of the same molecule?
Answer: 12%

Question: What about the IC50 [3] of the same molecule?
Answer: 220 nM

Question: And the inhibition [4]?
Answer: < 10%

Question: And the EC50 [5]?
Answer: 2.8 nM

Question: What about the inhibition (D(2) dopamine receptor) of the same molecule?
Answer: < 10%

Question: And the inhibition [6]?
Answer: < 10%

Question: And the IC50 [7]?
Answer: 0.13 nM

Question: And the inhibition [8]?
Answer: -2%

Question: And the IC50 [9]?
Answer: 1.7 nM

Question: What about the inhibition [10] of the same molecule?
Answer: 2%

Question: What about the inhibition [11] of the same molecule?
Answer: < 10%

Question: What about the inhibition [12] of the same molecule?
Answer: 4%

Question: And the inhibition [13]?
Answer: -10%

Question: What about the inhibition [14] of the same molecule?
Answer: < 10%

Question: What about the inhibition [15] of the same molecule?
Answer: < 10%

Question: What about the INH (Cytochrome P450 1A2) of the same molecule?
Answer: > 10 µM

Question: And the IC50 [16]?
Answer: 297 nM

Question: And the inhibition [17]?
Answer: < 10%
